Test results: patent publication US12023319B2, “Carboxylic acid aromatic amides” (priority 2016, dated 2024)

Legend:
Female Brown Norway rats = assay: Rat model for endometriosis, late phase (15 day); type: in vivo; settings: rat 15 day endometriosis model, once daily p.o. 5, 30, 60 mg/kg; FIG. 5-6
Procedure: 5. Rat Model for Endometriosis, Late Phase Female Brown Norway rats (Charles-River) were treated with Compound Example 3 (doses: 5 mg/kg, 30 mg/kg, 60 mg/kg) or vehicle alone (10% DMSO+90% phosphate buffered saline (PBS). 2 h later all animals got under deep anesthesia a transplantation of 6 uterus pieces in the peritoneal cavity. The tissue was obtained from donor animals which were pre-treated with 3 μg s.c. Estradiol for 2 days to guarantee standardized conditions of the uterus tissue. The animals were treated once daily p.o. with Compound Example 3 (doses: 5 mg/kg, 30 mg/kg, 60 mg/kg) or respective vehicle (10% DMSO+90% phosphate buffered saline (PBS). 15 days later the animals were sacrificed and the transplants as surrogate endometriosis lesion tissue were analyzed for markers of lesion activity (inflammatory cytokines). This approach is mimicking the long term effect on established inflammation in endometriosis. Analysis For ex vivo cytokine analysis, animals were sacrificed and tissues (endometriosis lesions) were frozen at −80° C. […] After centrifugation at 13.000 U/min (Eppendorf) supernatants were analyzed for cytokine levels using Bio-Plex Pro™ Rat Cytokine 24-plex (Bio Rad Assay #171K1001M) or the Bio-Plex Pro™ Mouse Cytokine 23-Plex (Bio Rad Assay #M600009RDPD) according to the manufacturer's protocols.

[1] = tested on: female Sprague Daley rats; assay: Isovolumetric bladder contraction model (rat); type: in vivo; settings: single administration 1 mg/kg & 15 mg/kg, compared to vehicle
Excerpt: 11. Isovolumetric Bladder Contraction Model (Rat) The aim of this study was to test the efficacy of Compound Examples on bladder function, in particularly on contraction frequency/intercontraction interval and contraction magnitude/contraction amplitude. The experimental setup for performing the isovolumetric bladder measurements was adapted to a previous descripted protocol (Yoshiyama M, de Groat W C. Am J Physiol Regul Integr Comp Physiol 280: […]-[…], 2001). Strong presence and target induction of BDKRB1 in comparison to BDKRB2 has been verified by gene expression analysis in bladders removed from rats after performance of the isovolumetric bladder contraction model in contrast to bladders of naïve, untreated rats. Immunohistochemistry confirmed the presence of BDKRB1 in bladders of rats after contraction, too. […] At least five cycles of isovolumetric bladder contractions were recorded before the Compound Examples or vehicle alone (PEG400/Water (50/50(v/v))) were administered via the catheter in the Vena jugularis at different dosages. About 2 minutes after compound administration the next nine contraction cycles were recorded. The change in contraction amplitude and intercontraction interval of the recorded bladder pressure and bladder contractions was calculated by comparing the means before and after compound administration using GraphPad Prism 7 program.

O=C(O)c1cc(NC(=O)C2(c3ccc(C(F)(F)F)cc3F)CC2)ccc1-c1cnn(C2CCC2)c1 [Example 3, 2-(1-Cyclobutyl-1H-pyrazol-4-yl)-5-[({1-[2-fluoro-4-(trifluoromethyl)phenyl]cyclopropyl}carbonyl)amino]benzoic acid]
expression of inflammatory cytokines in the lesions (IL-1 alpha, IL-1 beta) (Female Brown Norway rats): decreased
intercontraction interval (ICI) [1]: significant efficacy on prolonging
maximal pressure of bladder contractions [1]: remained unchanged
